Laboratory results from the NIST ThermoML archive (doi:10.1016/j.fluid.2005.05.012).
Numbers after ± are expanded uncertainties.

Assay: xn = mol fraction of the nth substance listed
Settings: 101.33 kPa, Liquid

CC(C)CO [2-methyl-1-propanol] + CN1CCNCC1
x1 = 1
Settings	mass density [kg/m3]	viscosity [mPa·s]
293.15 K	801.58 ± 0.57	3.994 ± 0.044
298.15 K	798.09 ± 0.57	3.334 ± 0.037
303.15 K	794.09 ± 0.58	2.794 ± 0.032

CN1CCNCC1 [N-methylpiperazine] + CC(C)CO
Settings	mass density, 293.15 K [kg/m3]	mass density, 298.15 K [kg/m3]	mass density, 303.15 K [kg/m3]	viscosity, 293.15 K [mPa·s]	viscosity, 298.15 K [mPa·s]	viscosity, 303.15 K [mPa·s]
x2 = 0	903.78 ± 0.36	899.8 ± 0.37	894.55 ± 0.38	2.1 ± 0.024	1.841 ± 0.021	1.624 ± 0.019
x2 = 0.0515	901.11 ± 0.36	897.16 ± 0.37	891.98 ± 0.38	2.237 ± 0.026	1.941 ± 0.022	1.699 ± 0.02
x2 = 0.0983	898.38 ± 0.37	894.46 ± 0.38	889.35 ± 0.39	2.361 ± 0.027	2.046 ± 0.024	1.781 ± 0.021
x2 = 0.1506	895.07 ± 0.38	891.19 ± 0.39	886.16 ± 0.4	2.542 ± 0.029	2.198 ± 0.025	1.914 ± 0.022
x2 = 0.2011	891.66 ± 0.38	887.82 ± 0.39	882.88 ± 0.4	2.728 ± 0.031	2.354 ± 0.027	2.039 ± 0.024
x2 = 0.2971	884.72 ± 0.4	880.97 ± 0.41	876.18 ± 0.42	3.084 ± 0.035	2.647 ± 0.03	2.288 ± 0.026
x2 = 0.402	876.51 ± 0.42	872.85 ± 0.42	868.24 ± 0.43	3.469 ± 0.039	2.957 ± 0.033	2.541 ± 0.029
x2 = 0.4982	868.29 ± 0.43	864.71 ± 0.44	860.24 ± 0.45	3.838 ± 0.043	3.249 ± 0.036	2.785 ± 0.032
x2 = 0.6001	858.58 ± 0.45	855.07 ± 0.46	850.74 ± 0.47	4.142 ± 0.046	3.504 ± 0.039	2.999 ± 0.034
x2 = 0.6995	847.72 ± 0.48	844.25 ± 0.48	840.04 ± 0.49	4.382 ± 0.048	3.693 ± 0.041	3.151 ± 0.036
x2 = 0.7978	835.15 ± 0.5	831.71 ± 0.51	827.6 ± 0.52	4.487 ± 0.049	3.789 ± 0.042	3.211 ± 0.036
x2 = 0.8995	819.74 ± 0.53	816.28 ± 0.54	812.25 ± 0.55	4.423 ± 0.049	3.708 ± 0.041	3.116 ± 0.035
